Legend:
Test in all cases: Post-emergence efficacy, glasshouse spray test
Format in all cases: in vivo
Conditions in all cases: evaluated after 13 days
[1] = tested on: Amaranthus palmeri (AMAPA)
Protocol: (§1) Seeds of a variety of test species were sown in standard soil in pots. After cultivation for 14 days (post-emergence) under controlled conditions in a glasshouse (at 24/16° C., day/night; 14 hours light; 65% humidity), the plants were sprayed with an aqueous spray solution derived from the dissolution of the technical active ingredient formula (I) in a small amount of acetone and a special solvent and emulsifier mixture referred to as IF50 (11.12% Emulsogen EL360 TM+44.44% N-methylpyrrolidone+44.44% Dowanol DPM glycol ether), to create a 50 g/l solution which was then diluted to required concentration using 0.25% or 1% Empicol ESC70 (Sodium lauryl ether sulphate)+1% ammonium sulphate as diluent. The test plants were then grown in a glasshouse under controlled conditions (at 24/16° C., day/night; 14 hours light; 65% humidity) and watered twice daily. After 13 days the test was evaluated (100=total damage to plant; 0=no damage to plant).
(§2) Ipomoea hederacea (IPOHE), Euphorbia heterophylla (EPHHL), Chenopodium album (CHEAL), Amaranthus palmeri (AMAPA), Lolium perenne (LOLPE), Digitaria sanguinalis (DIGSA), Eleusine indica (ELEIN), Echinochloa crus-galli (ECHCG), Setaria faberi (SETFA)

[2] = tested on: Chenopodium album (CHEAL)
Protocol: as §1, §2

[3] = tested on: Digitaria sanguinalis (DIGSA)
Protocol: as §1, §2

[4] = tested on: Echinochloa crus-galli (ECHCG)
Protocol: as §1, §2

Eleusine indica (ELEIN) = tested on: Eleusine indica (ELEIN)
Protocol: as §1, §2

[5] = tested on: Euphorbia heterophylla (EPHHL)
Protocol: as §1, §2

[6] = tested on: Ipomoea hederacea (IPOHE)
Protocol: as §1, §2

Lolium perenne (LOLPE) = tested on: Lolium perenne (LOLPE)
Protocol: as §1, §2

Setaria faberi (SETFA) = tested on: Setaria faberi (SETFA)
Protocol: as §1, §2

[7] = Amaranthus palmeri, post-emergence, 312 h, application rate 1000 g/Ha, read-out: Control of weed species AMAPA after post-emergence application (100=total damage to plant; 0=no damage to plant)
[8] = Chenopodium album, post-emergence, 312 h, application rate 1000 g/Ha, read-out: Control of weed species CHEAL after post-emergence application (100=total damage to plant; 0=no damage to plant)
[9] = Digitaria sanguinalis, post-emergence, 312 h, application rate 1000 g/Ha, read-out: Control of weed species DIGSA after post-emergence application (100=total damage to plant; 0=no damage to plant)
[10] = Echinochloa crus-galli, post-emergence, 312 h, application rate 1000 g/Ha, read-out: Control of weed species ECHCG after post-emergence application (100=total damage to plant; 0=no damage to plant)
[11] = Eleusine indica, post-emergence, 312 h, application rate 1000 g/Ha, read-out: Control of weed species ELEIN after post-emergence application (100=total damage to plant; 0=no damage to plant)
[12] = Euphorbia heterophylla, post-emergence, 312 h, application rate 1000 g/Ha, read-out: Control of weed species EPHHL after post-emergence application (100=total damage to plant; 0=no damage to plant)
[13] = Ipomoea hederacea, post-emergence, 312 h, application rate 1000 g/Ha, read-out: Control of weed species IPOHE after post-emergence application (100=total damage to plant; 0=no damage to plant)
[14] = Lolium perenne, post-emergence, 312 h, application rate 1000 g/Ha, read-out: Control of weed species LOLPE after post-emergence application (100=total damage to plant; 0=no damage to plant)
[15] = Setaria faberi, post-emergence, 312 h, application rate 1000 g/Ha, read-out: Control of weed species SETFA after post-emergence application (100=total damage to plant; 0=no damage to plant)

Compound	pest or weed control at 1000 g/ha [1, 7]	pest or weed control at 1000 g/ha [2, 8]	pest or weed control at 1000 g/ha [3, 9]	pest or weed control at 1000 g/ha [4, 10]	pest or weed control at 1000 g/ha (Eleusine indica (ELEIN); [11])	pest or weed control at 1000 g/ha [5, 12]	pest or weed control at 1000 g/ha [6, 13]	pest or weed control at 1000 g/ha (Lolium perenne (LOLPE); [14])	pest or weed control at 1000 g/ha (Setaria faberi (SETFA); [15])	further results
O=S(=O)(O)CC[n+]1ccc2cc(-c3ccccc3)ccc2n1 [Compound A112]	10%	30%	30%	10%	30%	20%	10%	10%	20%	–
O=S(=O)([O-])OCC[n+]1nc2ccccc2cc1Cl [Compound A111]	0%	0%	10%	0%	20%	30%	0%	0%	0%	–
COC(=O)CC[n+]1cc(C)c2ccccc2n1 [Compound A63]	40%	50%	20%	10%	40%	20%	10%	30%	10%	–
Cc1c[n+](CC(=O)[O-])nc2c(C)cccc12 [Compound A8]	50%	60%	30%	20%	50%	40%	30%	10%	10%	–
COC(=O)C(C)[n+]1ccc2ccccc2n1 (stereo not drawn) [Compound A120]	–	–	–	–	–	–	–	–	–	pest or weed control at 500 g/ha ([1]; Amaranthus palmeri, post-emergence, 312 h, application rate 500 g/Ha, read-out: Control of weed species AMAPA after post-emergence application (100=total damage to plant; 0=no damage to plant)): 100%; pest or weed control at 500 g/ha ([2]; Chenopodium album, post-emergence, 312 h, application rate 500 g/Ha, read-out: Control of weed species CHEAL after post-emergence application (100=total damage to plant; 0=no damage to plant)): 90%; pest or weed control at 500 g/ha ([3]; Digitaria sanguinalis, post-emergence, 312 h, application rate 500 g/Ha, read-out: Control of weed species DIGSA after post-emergence application (100=total damage to plant; 0=no damage to plant)): 50%; pest or weed control at 500 g/ha ([4]; Echinochloa crus-galli, post-emergence, 312 h, application rate 500 g/Ha, read-out: Control of weed species ECHCG after post-emergence application (100=total damage to plant; 0=no damage to plant)): 30%; pest or weed control at 500 g/ha (Eleusine indica (ELEIN); Eleusine indica, post-emergence, 312 h, application rate 500 g/Ha, read-out: Control of weed species ELEIN after post-emergence application (100=total damage to plant; 0=no damage to plant)): 60%; pest or weed control at 500 g/ha ([5]; Euphorbia heterophylla, post-emergence, 312 h, application rate 500 g/Ha, read-out: Control of weed species EPHHL after post-emergence application (100=total damage to plant; 0=no damage to plant)): 60%; pest or weed control at 500 g/ha ([6]; Ipomoea hederacea, post-emergence, 312 h, application rate 500 g/Ha, read-out: Control of weed species IPOHE after post-emergence application (100=total damage to plant; 0=no damage to plant)): 20%; pest or weed control at 500 g/ha (Lolium perenne (LOLPE); Lolium perenne, post-emergence, 312 h, application rate 500 g/Ha, read-out: Control of weed species LOLPE after post-emergence application (100=total damage to plant; 0=no damage to plant)): 0%; pest or weed control at 500 g/ha (Setaria faberi (SETFA); Setaria faberi, post-emergence, 312 h, application rate 500 g/Ha, read-out: Control of weed species SETFA after post-emergence application (100=total damage to plant; 0=no damage to plant)): 50%
O=S(=O)([O-])OCC[n+]1ccc2ccccc2n1 [Compound A26]	100%	70%	70%	30%	70%	90%	70%	60%	60%	–
COc1cccc2cc[n+](CCS(=O)(=O)[O-])nc12 [Compound A86]	100%	100%	40%	50%	80%	90%	90%	60%	50%	–
O=P([O-])(O)CC[n+]1ccc2ccccc2n1 [Compound A71]	70%	100%	80%	40%	70%	90%	40%	30%	70%	–
O=S(=O)(O)c1cccc(C[n+]2ccc3ccccc3n2)c1 [Compound A93, 3-(cinnolin-2-ium-2-ylmethyl)benzenesulfonic Acid]	–	–	–	–	–	–	–	–	–	Control of weed species AMAPA after post-emergence application (100=total damage to plant; 0=no damage to plant) ([1]; application rate 1000 g/Ha): 10; Control of weed species CHEAL after post-emergence application (100=total damage to plant; 0=no damage to plant) ([2]; application rate 1000 g/Ha): 10; Control of weed species DIGSA after post-emergence application (100=total damage to plant; 0=no damage to plant) ([3]; application rate 1000 g/Ha): 20; Control of weed species ECHCG after post-emergence application (100=total damage to plant; 0=no damage to plant) ([4]; application rate 1000 g/Ha): 20; Control of weed species ELEIN after post-emergence application (100=total damage to plant; 0=no damage to plant) (Eleusine indica (ELEIN); application rate 1000 g/Ha): 10; Control of weed species EPHHL after post-emergence application (100=total damage to plant; 0=no damage to plant) ([5]; application rate 1000 g/Ha): 50; Control of weed species IPOHE after post-emergence application (100=total damage to plant; 0=no damage to plant) ([6]; application rate 1000 g/Ha): 40; Control of weed species LOLPE after post-emergence application (100=total damage to plant; 0=no damage to plant) (Lolium perenne (LOLPE); application rate 1000 g/Ha): 10; Control of weed species SETFA after post-emergence application (100=total damage to plant; 0=no damage to plant) (Setaria faberi (SETFA); application rate 1000 g/Ha): 20
Cc1cccc2cc[n+](CC(=O)O)nc12 [Compound A59]	30%	60%	20%	20%	10%	20%	10%	10%	20%	–
COC(=O)C[n+]1cc(C)c2ccccc2n1 [Compound A62]	70%	60%	50%	30%	70%	40%	50%	40%	30%	–
O=S(=O)([N-]CC[n+]1ccc2ccccc2n1)C(F)(F)F [Compound A19, 2-cinnolin-2-ium-2-ylethyl(trifluoromethylsulfonyl)azanide]	10%	10%	10%	10%	0%	20%	30%	0%	10%	–
O=S(=O)([O-])CC[n+]1ccc2c(Cl)cccc2n1 [Compound A96]	70%	100%	60%	40%	60%	100%	20%	40%	30%	–
Cc1c[n+](CCO)nc2ccccc12 [Compound A118]	10%	10%	20%	10%	20%	20%	10%	10%	10%	–

— patent publication US20220046923A1, “HERBICIDAL CINNOLINIUM COMPOUNDS” (SYNGENTA CROP PROTECTION AG, priority 2018, published 2022)
